# In patent publication US5627035A, “Peptides that block human immunodeficiency virus and methods of use thereof” (Syntello Vaccine Development AB, priority 1995, dated 1997):
# Where a SMILES comes first, the peptide text is derived from it.
# Tests used:
# [1] = In vivo toxicity: growth of mice given intraperitoneal Gly-Pro-Gly; parameters: Mean weight of mice: unit not given here
# Description: In an in vivo test of the toxicity of Gly-Pro-Gly, groups of mice were given intraperitoneal injections of the substance starting at an age of 6 days. FIG. 3 also graphically depicts the results. […] The peptides are thus nontoxic even when given in large doses.
# [2] = Humoral anti-TNP antibody response in mice pretreated with Gly-Pro-Gly, ELISA endpoint titer; type: in vivo; settings: 5 mg/day/animal for 5 days
# Experimental: The effects of Gly-Pro-Gly on development of humoral specific antibody responses was examined in mice. For this purpose, Gly-Pro-Gly was administered in adult (4 weeks old, sex matched) Swiss albino outbred mice by intraperitoneal injections given daily for 5 consecutive days. The control group was not given Gly-Pro-Gly, whereas the second and third groups were given 0.5 mg and 5 mg Gly-Pro-Gly respectively. […]
# Serum antibody responses to the TNP group were monitored by the ELISA technique performed on serum samples collected 2 weeks after the second injection. […]
# ELISA assays were performed as follows. […] TNP-reactive antibodies were then detected by stepwise addition of enzyme labelled goat antibodies to mouse IgG1, IgG2a, IgG2b, IgG3 or IgM (all obtained from Southern Biotechnology Associates, Birmingham, Ala.) and enzyme substrate. Results are expressed as endpoint titer, the latter being defined as the reciprocal of the highest dilution of serum giving an ELISA absorbance value equal to 3 times that of control wells exposed to buffer alone but not serum.
# normal T cells = experiment: In vitro proliferative response of normal T cells to mitogens, stimulation index; type: cell-based, human
# Experimental: The in vitro proliferative response of normal T cells was examined after concurrent exposure of unfractionated, and T cell enriched (CD4^+ or CD8^+ enriched using DYNABEADS M-450 CD4 and DYNABEADS M-450 CD, magnetic beads according to the manufacturer's instructions, DYNAL A. S. Oslo Norway).
# The results are indicated as the stimulation index which is calculated as follows: the ratio between radioactive Thymidine incorporated in cell cultures exposed to mitogen alone or mitogen plus Gly-Pro-Gly divided by the radioactive Thymidine incorporated in identical cell cultures exposed to medium alone.
# HTLV-111B/H9 New York = experiment: Infectivity assay HTLV-IIIB/H9 New York: p24 ELISA (absorbance 454 nm of diluted supernatant), syncytia, immunofluorescence; type: cell-based, HIV-1; settings: for # OF SYNCYTIA/WELL Day 14 / PERCENTAGE OF AG POS CELLS / p24 1/10 / p24 1/100 / p24 1/1,000: Table 6; for HIV infection by p24 synthesis and syncytia formation, in words: Tables 3-6
# Experimental: Virus at 100 50% tissue culture infectious doses (TCID50) and peptides at concentrations of 250 and 25 μg/ml were added to the cells simultaneously and incubated for 2 hours at 4° C. with frequent stirring. Subsequently, the temperature was increased to 37° C. and the mixtures were subjected to a second incubation for 2 hours. Following the second incubation, the cells were centrifuged at 325 x g and washed once in RPMI medium (Gibco Laboratories, N.Y.). Cells, at a concentration of 5×10^5 /ml, were then added to 24 multidish well plates at a final volume of 1.5 ml of growth medium (RPMI supplemented with 10% fetal calf serum (FCS), antibiotics and polybrene (2 μg/ml)), with the addition of peptides at dilutions of 250 or 25 μg/ml. […] As additional controls, two HIV infected cell cultures (designated pos. controls 1 and 2, Tables 3-5) and two uninfected cell cultures (designated neg. controls 1 and 2) were used.
# Infected cells were continuously monitored for formation of syncytia and the growth medium supernatants were analyzed at days 9-12 p.i. for p24 antigen which is an indicator of HIV replication.
# Briefly, the following protocol was used for detection of the p24 antigen. HIV p24 antigen was determined using a rabbit anti-p24 polyclonal antiserum as capture antibody and a biotinylated rabbit anti-p24 polyclonal antibody was used as detecting antibody in an avidin-horse radish peroxidase (HRP) ELISA. The sensitivity of the assay allowed detection of approximately 50 pg of p24 antigen per ml supernatant. […] Serial dilutions of the supernatants were made so as to detect p24 concentration in the most accurate range (<2.0 absorbance units).
# The number of infected cells were then determined by indirect immunofluorescence using a human HIV positive serum diluted 1/100 and FITC conjugated antihuman IgG (Bio Merieux, France) diluted 1/200.
# In tables 3-6, the p24 content of the supernatants of infected cells was determined by diluting the supernatants of infected cells in serial tenfold dilutions (1/10, 1/100, 1/1000 and 1/10,000) and analyzing in ELISA as described above. Results are indicated by the absorbance values (454nm) of respective dilutions.
# In tables 8 and 9, the p24 content of the supernatants of infected cells was determined by diluting the supernatants in serial tenfold dilutions (1/10, 1/100, 1/1,000) and analyzing by ELISA as described in Example 2. Results are indicated by the absorbance values (454 nm) of respective dilutions.
# [3] = tested on: herpes simplex virus type I (HSV-1) strain McIntyre; experiment: Yield inhibition assay of HSV-1 in GMK cells; type: cell-based; settings: plaque reduction and virus yields
# Experimental: The yield inhibition assay was performed as follows: HSV-1 was inoculated at a multiplicity of 0.5 pfu per GMK cell in the presence of the respective peptide at concentrations of 250 and 25 μg/ml. Virus adsorption was performed for 60 min. at room temperature. The cells were then rinsed five times with Hanks' Balanced Salt Solution (BSS) and incubated in a 5% CO2 atmosphere at 37° C. with maintenance medium containing either peptides or acyclovir, according to the methods described in "Proceedings of a Symposium on Acyclovir", The American Journal of Medicine, Jul. 20, (1982) which is incorporated herein by reference, or without any additives. Twenty-four hours p.i. the cells were freeze-thawed, scraped into the medium and tested for virus yield by the infectivity assay as outlined in Example 2. The results are shown in Table 7 where the plaque reduction values are the mean of two cultures and the yield of HSV-1 after 24 hours is the mean of two determinations and the values are presented in millions of pfu/ml.
compound,measurement,setting,value
NCC(=O)N1CCC[C@H]1C(=O)NCC(N)=O [Gly-Pro-Gly] (H-Gly-Pro-Gly-NH2),Mean weight of mice,"[1]; Feb. 25, 0.001 g GPG i.p.",5.66
same,Mean weight of mice,"[1]; Feb. 25, 0.1 g GPG i.p.",4.98
same,Mean weight of mice,"[1]; Feb. 25, 1 g GPG i.p.",5.62
same,Mean weight of mice,"[1]; Feb. 26, 0.001 g GPG i.p.",6.24
same,Mean weight of mice,"[1]; Feb. 26, 0.1 g GPG i.p.",5.54
same,Mean weight of mice,"[1]; Feb. 26, 1 g GPG i.p.",6.27
same,Mean weight of mice,"[1]; Feb. 27, 0.001 g GPG i.p.",6.76
same,Mean weight of mice,"[1]; Feb. 27, 0.1 g GPG i.p.",6.41
same,Mean weight of mice,"[1]; Feb. 27, 1 g GPG i.p.",7.04
same,Mean weight of mice,"[1]; Feb. 28, 0.001 g GPG i.p.",7.40
same,Mean weight of mice,"[1]; Feb. 28, 0.1 g GPG i.p.",7.11
same,Mean weight of mice,"[1]; Feb. 28, 1 g GPG i.p.",7.80
same,Mean weight of mice,"[1]; March 1, 0.001 g GPG i.p.",7.83
same,Mean weight of mice,"[1]; March 1, 0.1 g GPG i.p.",8.00
same,Mean weight of mice,"[1]; March 1, 1 g GPG i.p.",8.61
same,Mean weight of mice,"[1]; March 4, 0.001 g GPG i.p.",9.22
same,Mean weight of mice,"[1]; March 4, 0.1 g GPG i.p.",9.35
same,Mean weight of mice,"[1]; March 4, 1 g GPG i.p.",10.53
same,Mean weight of mice,"[1]; March 5, 0.001 g GPG i.p.",9.63
same,Mean weight of mice,"[1]; March 5, 0.1 g GPG i.p.",10.04
same,Mean weight of mice,"[1]; March 5, 1 g GPG i.p.",11.22
same,Mean weight of mice,"[1]; March 6, 0.001 g GPG i.p.",9.88
same,Mean weight of mice,"[1]; March 6, 0.1 g GPG i.p.",10.35
same,Mean weight of mice,"[1]; March 6, 1 g GPG i.p.",11.44
same,Mean weight of mice,"[1]; March 7, 0.001 g GPG i.p.",9.95
same,Mean weight of mice,"[1]; March 7, 0.1 g GPG i.p.",11.17
same,Mean weight of mice,"[1]; March 7, 1 g GPG i.p.",12.12
same,Mean weight of mice,"[1]; March 8, 0.001 g GPG i.p.",10.30
same,Mean weight of mice,"[1]; March 8, 0.1 g GPG i.p.",11.38
same,Mean weight of mice,"[1]; March 8, 1 g GPG i.p.",12.69
same,Mean weight of mice,"[1]; March 15, 0.001 g GPG i.p., no injections 3/8-3/15",16.59
same,Mean weight of mice,"[1]; March 15, 0.1 g GPG i.p., no injections 3/8-3/15",17.46
same,Mean weight of mice,"[1]; March 15, 1 g GPG i.p., no injections 3/8-3/15",19.85
same,influence on the growth of mice,[1]; compared with controls,no significant influence
same,humoral immune responsiveness of mice,[2],do not appreciably influence
same,direct anti-proliferative properties on T cells,normal T cells; doses as high as 20 μM,marginal if any
same,effect on normal T cell and B cell functions,"normal T cells; in vitro human, in vivo murine",no effect
Gly-Pro-Ala,# OF SYNCYTIA/WELL Day 14,HTLV-111B/H9 New York; 25 μg/ml,85
same,PERCENTAGE OF AG POS CELLS,HTLV-111B/H9 New York; 25 μg/ml,30-40%
same,p24 1/10,HTLV-111B/H9 New York; 25 μg/ml,> 2.0
same,p24 1/100,HTLV-111B/H9 New York; 25 μg/ml,0.616
same,"p24 1/1,000",HTLV-111B/H9 New York; 25 μg/ml,0.154
same,# OF SYNCYTIA/WELL Day 14,HTLV-111B/H9 New York; 250 μg/ml,20
same,PERCENTAGE OF AG POS CELLS,HTLV-111B/H9 New York; 250 μg/ml,20-30%
same,p24 1/10,HTLV-111B/H9 New York; 250 μg/ml,> 2.0
same,p24 1/100,HTLV-111B/H9 New York; 250 μg/ml,0.299
same,"p24 1/1,000",HTLV-111B/H9 New York; 250 μg/ml,0.059
same,"HIV infection by p24 synthesis and syncytia formation, in words",HTLV-111B/H9 New York,no inhibitory effect on HIV replication
Gly-Pro-Gly-Gly (GPGG; printed: Gly-Pro-Gly-Gly),# OF SYNCYTIA/WELL Day 14,HTLV-111B/H9 New York; 25 μg/ml,15
same,PERCENTAGE OF AG POS CELLS,HTLV-111B/H9 New York; 25 μg/ml,25-30%
same,p24 1/10,HTLV-111B/H9 New York; 25 μg/ml,0.933
same,p24 1/100,HTLV-111B/H9 New York; 25 μg/ml,0.11
same,"p24 1/1,000",HTLV-111B/H9 New York; 25 μg/ml,0.016
same,# OF SYNCYTIA/WELL Day 14,HTLV-111B/H9 New York; 250 μg/ml,20
same,PERCENTAGE OF AG POS CELLS,HTLV-111B/H9 New York; 250 μg/ml,30%
same,p24 1/10,HTLV-111B/H9 New York; 250 μg/ml,0.523
same,p24 1/100,HTLV-111B/H9 New York; 250 μg/ml,0.052
same,"p24 1/1,000",HTLV-111B/H9 New York; 250 μg/ml,0.007
same,"HIV infection by p24 synthesis and syncytia formation, in words",HTLV-111B/H9 New York,no inhibitory effect on HIV replication
"Nc1nc2c(ncn2COCCO)c(=O)[nH]1 [Acyclovir, acyclovir]","capacity of HSV-1 to replicate in GMK cells, in words",[3],significantly reduced
